Results from the NIST ThermoML archive (doi:10.1016/j.jct.2018.06.022).

Settings: Liquid, Closed cell (Static) method

O=C=O [carbon dioxide]
Settings	vapor or sublimation pressure [kPa]
218.15 K	552.5
233.15 K	1004.4
243.15 K	1428
258.15 K	2293.7
273.15 K	3484.6
288.19 K	5089.6
302.94 K	7171.2
